Laboratory results taken from US10562848B2, “Inhibitors of TNF superfamily costimulatory interactions and methods for uses of the same” (UNIVERSITY OF MIAMI, priority 2015, dated 2020).

How the values were obtained:
[1] = test system: CD40L-induced NF-κB activation in CD40 sensor cells (HEK Blue); assay: Inhibition of CD40L-induced NF-κB activation in CD40 sensor cells (HEK-Blue); assay type: cell-based, human; details: for IC50: Homo sapiens, CD40L 20 ng/mL, 18 h
Excerpt: Activities of the compounds of the disclosure were confirmed in cell-based assays. As a first example, TNF-R1 and CD40 expressing sensor cells (HEK-Blue; InvivoGen, San Diego, Calif.) were used as described in the literature (see Song et al., Br J Pharmacol 171:4955-4969 (2014) and Cechin et al., Steroids 85:36-43 (2014)).
Cells were maintained in DMEM at 80% confluence for each experiment. Cells were trypsinized and re-suspended in the same medium with 1% FBS and seeded on 96-well microtiter plates at a density of 1×10^5 cells/well in the absence and presence of various concentrations of compounds diluted in the same media. For ligand mediated stimulation, final concentrations of recombinant human TNFα (2 ng/mL) and CD40L (20 ng/mL) were maintained in the wells for this purpose. After 18-hour incubation at 37° C., 20 μL supernatant of each well were taken and added to another 96-well microtiter plate containing 180 μL/well of QUANTI-Blue (InvivoGen, CA). The level of SEAP was determined after 30-minute incubation at 37° C. by reading at 625 nm using a spectrophotometer. […] Data are average±SD (normalized to CD40L-activated cells alone) for n=4 independent experiments with duplicates for each condition.

[2] = test system: CD40L-induced MHC-II expression in human THP-1 cells; assay: cells; details: for IC50: Homo sapiens, THP-1, 48 h, read-out: IC50, inhibition of CD40L-induced THP-1 activation
Method: As a further assessment, the ability of the compounds of the disclosure to inhibit the CD40L-induced activation of THP-1 cells, which can serve as surrogate dendritic cells, was evaluated using an assay as described previously (see Margolles-Clark et al, J Mol Med 87:1133-1143 (2009)).
THP-1 human myeloid cells obtained from American Type Culture Collection (ATCC; Manasses, Va.) were cultivated in RPMI media 1640 supplemented with 10% FBS, 100 U/mL penicillin, and streptomycin 100 μg/mL to a density of 1×10^6 cells/mL. Cells were centrifuged and cultured in the same medium without FBS for a period of 24 hours. Starved cells were placed in fresh medium without FBS and stimulated with 0.5 μg/mL of rhCD154 (MegaCD40L; Enzo Life Sciences), in the presence of various concentrations of test compounds. After 48 h, cells were labeled with biotin conjugated monoclonal anti-human CD40 antibody (clone LOB7/6) (LifeSpan BioSciences, Seattle, Wash.), detected with allophycocyanin-eFluor™ 780 streptavidin (eBioscience, San Diego, Calif.), and labeled with monoclonal anti-human HLA-DR antibody APC-Alexa Fluor® 750 (clone LN3) (eBioscience, San Diego, Calif.). All cultivations were carried out for 48 h at 37° C., 90% humidity, and 5% CO2. Stained THP-1 cells were analyzed using a BD LSR II Flow Cytometer (BD Biosciences, San Jose, Calif.). Cell surface markers were quantified in live cells only after gating out 4′,6-diamidino-2-phenylindole (DAPI) labeled cells. All experiments were repeated at least three times.
Data are average±SD in live (DAPI^−) cells from five independent experiments and were analyzed by […] one-way ANOVA followed by Dunnett's multiple comparison test, *p<0.05, **p<0.01, ****p<0.0001 vs. cells+huCD40L.

[3] = test system: Balb/c skin grafts in C57BL/6 mice; assay: Skin allograft survival model; assay type: in vivo, mouse; details: CTLA4-Ig plus 21045 30 mg/kg daily s.c. in 20% HPβCD
Excerpt: Full-thickness ear skins from donor mice (Balb/c, Jackson Laboratory; Bar Harbor, Me.) were transplanted onto the dorsal thorax of recipient mice (C57BL/6, Jackson Laboratory) by placing them on ˜1 cm diameter graft beds and securing with bandages.

SMILES | inhibition of CD40L-induced NF-κB activation (in words) [1] | IC50 [1] [µM] | IC50 [2] [µM] | inhibition of CD40L-induced MHC-II expression in THP-1 cells (in words) [2] | mean survival time (MST) of skin grafts [3] [days]
O=C(Nc1ccc(-c2ccc(C(=O)Nc3ccc(C(=O)O)c4ccccc34)cc2)cc1)c1ccc([N+](=O)[O-])cc1 [Compound 25441] | concentration-dependent inhibition | 9 | ~10 | concentration-dependent inhibition | –
COC(=O)c1ccc(C(=O)Nc2ccc(-c3ccc(C(=O)Nc4cccc5cccc(S(=O)(=O)O)c45)cc3)cc2)cc1 [Compound 21045] | concentration-dependent inhibition | 17 | – | concentration-dependent inhibition | 15
O=C(Nc1ccc(-c2ccc(C(=O)Nc3cccc4cccc(S(=O)(=O)O)c34)cc2)cc1)c1ccc([N+](=O)[O-])cc1 [Compound 21041, 8-[(4′-[4-nitrobenzamido]biphenyl-4-yl-carbonyl)amino]naphthalene-1-sulfonic acid] | concentration-dependent inhibition | 10 | ~10 | concentration-dependent inhibition | –
